We go through 25 compounds from BindingDB's records for patent US20250129027 (Apogee Pharmaceuticals, 2025).

SMILES strings stand for the structures.

The target in one test is T1, Monoglyceride lipase (Homo sapiens, UniProt Q99685).
T1 sequence (Q99685 whole entry): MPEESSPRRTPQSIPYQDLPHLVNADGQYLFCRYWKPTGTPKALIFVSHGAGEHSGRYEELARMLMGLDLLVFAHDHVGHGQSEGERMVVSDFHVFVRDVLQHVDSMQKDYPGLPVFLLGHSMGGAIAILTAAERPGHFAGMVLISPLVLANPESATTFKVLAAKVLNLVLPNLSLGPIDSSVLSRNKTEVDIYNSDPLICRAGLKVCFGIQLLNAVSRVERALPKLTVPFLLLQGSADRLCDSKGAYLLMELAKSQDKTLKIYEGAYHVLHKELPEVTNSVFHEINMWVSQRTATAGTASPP
The experiment in a line: In Vitro Inhibition on FAAH and MAGL Activity Assay. The text has this: (§1) In brief, FAAH hydrolyzes AMC arachidonoyl amide resulting in the release of the fluorescent product, while the inhibitor will inhibit the FAAH activity and thus reduce the fluorescent signal. […] The absorbance of the yellow product can be analyzed using the plate reader.

Test [1] deals with T2, Fatty-acid amide hydrolase 1 (Homo sapiens, UniProt O00519).
T2 sequence (O00519 whole entry): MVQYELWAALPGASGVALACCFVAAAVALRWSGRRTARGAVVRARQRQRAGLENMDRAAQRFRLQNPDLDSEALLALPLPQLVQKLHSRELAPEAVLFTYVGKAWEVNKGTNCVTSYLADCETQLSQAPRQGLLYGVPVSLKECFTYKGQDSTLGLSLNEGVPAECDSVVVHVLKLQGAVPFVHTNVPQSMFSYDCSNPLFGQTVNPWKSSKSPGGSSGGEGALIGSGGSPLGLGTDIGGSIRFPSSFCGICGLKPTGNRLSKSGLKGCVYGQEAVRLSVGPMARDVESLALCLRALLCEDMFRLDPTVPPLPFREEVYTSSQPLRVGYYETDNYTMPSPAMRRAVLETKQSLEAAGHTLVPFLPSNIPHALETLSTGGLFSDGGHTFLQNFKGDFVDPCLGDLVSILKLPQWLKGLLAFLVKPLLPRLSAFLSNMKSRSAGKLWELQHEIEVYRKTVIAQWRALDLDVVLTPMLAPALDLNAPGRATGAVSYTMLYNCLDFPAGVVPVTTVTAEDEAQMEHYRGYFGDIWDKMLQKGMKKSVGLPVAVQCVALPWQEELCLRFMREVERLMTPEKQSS
The description is as above.
Excerpt: as §1

As a reminder, the IC50 is the concentration needed to halve the response being measured. Higher therefore signals a need for much substance.

As for `CCCCCNC(=O)Oc1cccc(-c2cncc(C(=O)OCC)c2)c1` [US20250129027, Example 1], the concentration for half-maximal inhibition (IC50) on Monoglyceride lipase is over 10 µM.

As to `CCCCCCCCNC(=O)Oc1cccc(-c2cncc(C(=O)OCC)c2)c1` [US20250129027, Example 3], the half-inhibitory concentration (IC50) at Monoglyceride lipase was over 10 µM.

On Monoglyceride lipase, `CCCCCNC(=O)Oc1cccc(-c2cncc(C(=O)OC)c2)c1` [US20250129027, Example 8] yielded a half-maximal inhibitory concentration (IC50) of over 10 µM.

Take `CCCCCCCNC(=O)Oc1cccc(-c2cncc(C(=O)OC)c2)c1` [US20250129027, Example 9]: on Monoglyceride lipase, the IC50 is over 10 µM.

In turn, `CCCCCCCCNC(=O)Oc1cccc(-c2cncc(C(=O)OC)c2)c1` [US20250129027, Example 10] registered a half-inhibitory concentration (IC50) at Monoglyceride lipase of over 1 µM.

As for `O=Cc1cncc(-c2cccc(OC(=O)NC3CCCCC3)c2)c1` [US20250129027, Example 19], the values for the half-maximal inhibitory concentration (IC50) (at Monoglyceride lipase; in test [1]) were over 10 µM and 1 µM, respectively.

With `CCCCCCCCCCCCCCNC(=O)Oc1cccc(-c2cncc(C(=O)NO)c2)c1` [US20250129027, Example 24], the half-inhibitory concentration (IC50) on Monoglyceride lipase was over 10 µM; in test [1], under 0.01 µM.

The compound `CCCCCCCNC(=O)Oc1cccc(-c2cncc(C#N)c2)c1` [US20250129027, Example 26] showed a half-maximal inhibitory concentration (IC50) against Monoglyceride lipase of over 10 µM.

In the case of `CCCCCCCCNC(=O)Oc1cccc(-c2cncc(C#N)c2)c1` [US20250129027, Example 27], the half-inhibitory concentration (IC50) against Monoglyceride lipase is over 10 µM.

In turn, `CCCCCCCCNC(=O)Oc1cccc(-c2cncc(C(F)(F)F)c2)c1` [US20250129027, Example 30] returned a half-maximal inhibitory concentration (IC50) against Monoglyceride lipase of over 10 µM.

`CCCCCCCCNC(=O)Oc1ccc(OC)c(-c2cncc(-c3ccc[nH]3)c2)c1` [US20250129027, Example 41] gave an IC50 at Monoglyceride lipase of over 10 µM.

With `CCCCCCCCNC(=O)Oc1cccc(-c2cncc(-c3ccco3)c2)c1` [US20250129027, Example 47], on Monoglyceride lipase, 10 µM corresponded to half-maximal inhibition (IC50).

Take `CCCCCCCCNC(=O)Oc1ccc(OC)c(-c2cncc(-c3cccs3)c2)c1` [US20250129027, Example 65]: at Monoglyceride lipase, the half-inhibitory concentration (IC50) was 10 µM.

At Monoglyceride lipase, `CCCCCCCCNC(=O)Oc1ccc(OC(F)(F)F)c(-c2cncc(-c3ncco3)c2)c1` [US20250129027, Example 88] displayed an IC50 of 10 µM.

On Monoglyceride lipase, `CCCCCCNC(=O)Oc1cccc(-c2cncc(-c3nnco3)c2)c1` [US20250129027, Example 128] yielded an IC50 of over 50 µM.

`CCCCCCCCNC(=O)Oc1cccc(-c2cncc(-c3nnco3)c2)c1` [US20250129027, Example 130]: at Monoglyceride lipase, the IC50 is over 10 µM.

On Monoglyceride lipase, `CCCCCCCCCCCCNC(=O)Oc1cccc(-c2cncc(-c3nnco3)c2)c1` [US20250129027, Example 131] registered an IC50 of under 10 µM.

`CCCCCCCCCCCCCCNC(=O)Oc1cccc(-c2cncc(-c3nnco3)c2)c1` [US20250129027, Example 132]: the values for the 50% inhibitory concentration (IC50) (on Monoglyceride lipase; in test [1]) were under 10 µM and under 0.02 µM, respectively.

`CN(C(=O)Oc1cccc(-c2cncc(-c3nnco3)c2)c1)C1CCCCCC1` [US20250129027, Example 144]: the IC50 against Monoglyceride lipase was over 10 µM; in test [1] it was over 1 µM.

At Monoglyceride lipase, `CCCCCCCNC(=O)Oc1ccc(O)c(-c2cncc(-c3nnco3)c2)c1` [US20250129027, Example 156] had a concentration for half-maximal inhibition (IC50) of over 20 µM.

In turn, `CCCCCCCCNC(=O)Oc1ccc(O)c(-c2cncc(-c3nnco3)c2)c1` [US20250129027, Example 157] displayed an IC50 against Monoglyceride lipase of over 10 µM.

At Monoglyceride lipase, `CCCCCCCNC(=O)Oc1ccc(OC)c(-c2cncc(-c3nnco3)c2)c1` [US20250129027, Example 166] registered an IC50 of over 10 µM.

With `CCCCCCCCNC(=O)Oc1ccc(OC)c(-c2cncc(-c3nnco3)c2)c1` [US20250129027, Example 167], the 50% inhibitory concentration (IC50) at Monoglyceride lipase was over 10 µM.

Regarding `CN(C)c1ccc(OC(=O)NC2CCCC2)cc1-c1cncc(-c2nnco2)c1` [US20250129027, Example 183], the results for the IC50 (against Monoglyceride lipase; in test [1]) were over 10 µM and over 1 µM, respectively.

Compound `COc1ccc(OC(=O)NC2CCCCC2)cc1-c1cncc(-c2nncs2)c1` [US20250129027, Example 217] came in with an IC50 against Monoglyceride lipase of over 10 µM.
